Tests used:
[1] = system: dystrophin-deficient mdx primary myoblasts; assay: Myogenic differentiation of mdx primary myoblasts (MyHC staining); assay type: cell-based, mouse; conditions: for mature myofiber/myocyte formation (MyHC staining): 2% FBS, vs DMSO
Text: (§1) FIGS. 16A-16B. Pro-myogenic effect of chlorhexidine on dystrophin-deficient mdx primary myoblasts. FIG. 16A: We used primary myoblasts isolated from male mdx mice as a cellular model to test the effect of CHX on myogenesis. […] Both of the pro-myogenic and proliferative effects of CHX observed in mdx primary myoblasts were consistent with prior findings from C2C12 myoblasts. Additional validations of these effects are on-going using myoblasts derived from human DMD patients.
FIGS. 22A-22B. […] Using primary myoblasts isolated from mdx mice, we determined CM002 effect on myogenesis in this dystrophic disease cellular model. […] Similar as shown in C2C12 myoblasts, this effect was stronger than that of CHX.

C3H10T1/2 cells = assay: Adipogenic differentiation of C3H10T1/2 mesenchymal precursors; assay type: cell-based; conditions: for adipogenic factors C/EBPα and PPARγ / mature adipocyte marker expression (FASN): 1 μM, immunoblot; for adipogenic factors C/EBPα and PPARγ: day 7 differentiated; for mature adipocyte formation / lipid accumulation: day 8, oil-red-O and Bodipy
Procedure: Cell culture and adipogenic differentiation. 3T3-L1 and C3H10T1/2 cell lines were obtained from ATCC, and maintained in DMEM with 10% fetal bovine serum supplemented with 1% Penicillin-Streptomycin-Glutamine, as previously described (Nam, Guo, Chatterjee et al., 2015; Liu, Xiong, Nam et al., 2020). 0.25% Trypsin was used for digestion and passaging of these cell lines. For adipogenic differentiation induction media (1.6 μM insulin, 1 μM dexamethasone, 0.5 mM IBMX, 0.5 uM Rosiglitazone) was used for 3 days followed by maintenance medium with insulin for 3 days for 3T3-L1 and 5 days for C3H10T1/2 cells, as previously described (Liu et al., 2020).
Oil-red-O and Bodipy staining. These stainings for neutral lipids during adipogenic differentiation were performed as previously described (Nam et al., 2015). Briefly, for oil-red-O staining, cells were fixed using 10% formalin and incubated using 0.5% oil-red-O solution for 1 hour. Bodipy 493/503 was used at 1 mg/L together with DAPI for 15 minutes, following 4% paraformaldehyde fixation and permeabilization with 0.2% triton-X100.
Immunoblot analysis. Total protein was extracted using lysis buffer containing 3% NaCl, 5% Tris-HCl, 10% Glycerol, 0.5% Triton X-10 in MilliQ water with protease inhibitor cocktail. 20-40 μg of total protein was resolved on 10% SDS-PAGE gels followed by immunoblotting on PVDF membranes (Bio-rad). Membranes were developed by chemiluminescence (SuperSignal West Pico, Pierce Biotechnology) and signals were obtained via a chemiluminescence imager (Amersham Imager 680, GE Biosciences).

[2] = system: human primary myoblasts derived from DMD patients; assay: MTT cell viability of human DMD primary myoblasts; assay type: cell-based
Procedure: Cells were seeded at 5×10^4 concentration in 100 μl culture medium into 96 wells flat bottom microplates and treated after 24 h with desired compounds and controls. After desired incubation periods, cells were treated with MTT labeling reagent 1× (MTT (3-[4,5-dimethylthiazol-2-yl]-2,5-diphenyltetrazolium bromide labeling reagent, 5 mg/ml in PBS, Roche Cell Proliferation Kit I (MTT)) and Solubilization buffer 1× (10% SDS in 0.01 M HCl and left overnight. Next morning absorbance was measured at 570 nm and 700 nm on microplate (ELISA) reader (TECAN infinite M200pro). The mean and standard deviation values were calculated for each well and graphed.
FIGS. 41A-41D. Effect of Chlorhexidine (CHX) and CM002 treatment on viability of mouse and human myoblasts. To determine potential toxic effects of CHX and CM002, we treated mouse C2C12 myoblast cell line with increasing concentrations from 0.2-5 μM for 48 hours and determined cell viability using the MTT assay (FIG. 41A). […] Considering the inflammatory milieus in dystrophic muscles, we further tested the tolerance of myoblasts to these molecules in the presence of inflammatory stimuli, a cytokine cocktail (CC) consisted of 10 ng/mL IL-1β, 100 ng/mL IFN-γ and 25 ng/mL of TNF-α (FIG. 41B). […] Lastly, human primary myoblasts derived from Duchene Muscular Dystrophy (DMD) patients were used to determine their tolerance to these compounds.

C57/BL6 wild-type mice = assay: Cardiotoxin-induced acute muscle injury, intramuscular injection into TA muscle; assay type: in vivo, mouse; conditions: for eMyHC staining (new myofiber formation): after cardiotoxin injury, local intramuscular injection
Text: FIGS. 42A-42B. CHX and CM002 promote nascent myofiber formation upon acute muscle injury. To determine whether the effect of CHX and CM002 on promoting myogenesis leads to improved muscle regeneration in vivo, we tested local intramuscular injection into TA muscle following acute injury by cardiotoxin in normal C57/BL6 wild-type mice. […] Collectively, these findings indicate that these clock-activating molecules are capable of inducing myogenic response via local administration leading to sustained new myofiber formation following acute muscle injury.

[3] = system: CLOCK and Bmal1 interaction; assay: Co-immunoprecipitation of Bmal1 with Myc-CLOCK; assay type: cell-based
mdx primary myoblasts = assay: EdU proliferation in mdx primary myoblasts; assay type: cell-based, mouse; conditions: 0.5-1 μM; 6 hours
Text: as §1

[4] = system: C3H10T1/2 cells containing Per2::dLuc luciferase reporter; assay: Bioluminescence monitoring of Per2::dLuc reporter in C3H10T1/2 cells; assay type: cell-based; conditions: 10T1/2 cells
Procedure: Generation of stable adipogenic progenitor cell lines containing Per2::dLuc. 3T3-L1 preadipocytes and the C3H10T1/2 mesenchymal stem cells obtained from ATCC were used for Per2:: dLuc lentiviral transduction and stable clone selection using puromycin, as described previously (Guo et al., 2012). Briefly, cells were transfected with lentiviral packaging plasmids (pSPAX.2 and pMD2.G) and lentivirus vectors Per2::dLuc using PEI Max (Polysciences). At 48 hours post-transfection, lentiviruses were collected. 3T3-L1 and C3H10T1/2 […] cells were infected using collected lentiviral media supplemented with polybrene. 24 hours following lentiviral infection, stable cell lines were selected in the presence of 2 μg/ml puromycin.
Continuous Bioluminescence monitoring of Per2:: dLuc luciferase reporter. 3T3-L1 and C3H10T1/2 cells containing a Per2::dLuc luciferase reporter were generated as described previously (Xiong et al., 2023). […] Raw and subtracted results of real-time bioluminescence recording data for 6 days were exported, and data was calculated as luminescence counts per second, as previously described (Xiong, Li, Nam et al., 2022). […] Briefly, raw data following the first cycle from day 2 to […] were fitted to a linear baseline, and the baseline-subtracted data (polynomial number=1) were fitted to a sine wave, from which period length and goodness of fit and damping constant were determined.

Compound	myotube fusion, cells seeded at low density ([1]; 1 μM vs 0.5 μM, day 3)	mature myofiber/myocyte formation (MyHC staining) ([1]; day 3 of differentiation)	adipogenic factors C/EBPα and PPARγ (C3H10T1/2 cells)	mature adipocyte marker expression (FASN) (C3H10T1/2 cells)	mature adipocyte formation / lipid accumulation (C3H10T1/2 cells)	cell death at 5 μM ([2]; human, 5 μM)	MyoD, Myf5 and Myogenin levels (C57/BL6 wild-type mice; CTX-injected TA muscle)	Pax7 protein (C57/BL6 wild-type mice; CTX-injected TA muscle)	eMyHC staining (new myofiber formation) (C57/BL6 wild-type mice)	Bmal1 interaction with CLOCK C267 mutant ([3]; Cysteine to Alanine mutant of CLOCK)	Bmal1 immunoprecipitated by Myc-CLOCK (CLOCK/Bmal1 interaction) ([3]; wild-type CLOCK, CHX 0.5 and 1 μM)	pro-myogenic effect in Bmal1-deficient (BMKO/mdx) primary myoblasts ([1]; day 3 of differentiation)	increase of rate of proliferation (EdU) (mdx primary myoblasts) [%]	clock period length [4]	clock cycling amplitude ([4]; 1 and 2 μM)	adipogenic maturation, early stage (C3H10T1/2 cells; 5 days after adipogenic induction, oil-red-O)	concentration up to which viability is not significantly compromised ([2]; with cytokine cocktail)
CCCCCC/C=N/C(=N)NC(=N)Nc1ccc(Cl)cc1 [CM002]	more advanced myotube fusion than that of 0.5 μM	significantly enhanced mature myocyte formation induced by 0.5 μM CM002 treatment	strong inhibition of adipogenic factors C/EBPα and PPARγ	substantially lower	markedly suppressed their differentiation in a dose-dependent manner	displaying sensitivity to cell death by CM002 treatment at this concentration	elevated levels of MyoD, Myf5 and Myogenein	robustly increased	substantial amount of eMyHC staining indicative of sustained nascent myofiber regeneration	–	–	–	–	–	–	–	–
[H]/N=C(\N/C(=N/[H])NCCCCCCNC(=N)NC(=N)Nc1ccc(Cl)cc1)Nc1ccc(Cl)cc1 [CHX, chlorhexidine]	–	significantly elevated formation of mature myofibers	significantly impaired levels of adipogenic factors	attenuated expression of fatty acid synthase	attenuated mature adipocyte formation	–	–	robustly increased	substantial amount of eMyHC staining indicative of sustained nascent myofiber regeneration	failed to increase Bmal1 interaction with CLOCK C267 mutant	sufficient to augment their interaction	abolished in Bmal1-deficient mdx primary myoblasts	~22	dose-dependent clock period shortening, with this effect significant only for 1 and 2 μM	augment clock cycling amplitude	dose-dependent inhibition of adipogenic maturation	up to 5 μM
